# Experimental data reported in ChEMBL document CHEMBL1153213, “Inhibition of CTP synthase from Escherichia coli by xanthines and uric acids” (Bioorg Med Chem Lett, 2010).
# The source made the active and inactive calls. The calls are words filed in the database; no cut-off is given here.
# Assays:
# [1] = Inhibition of Escherichia coli recombinant N-terminal hexahistidine-tagged CTP synthetase expressed in Escherichia coli BL21 (DE3) assessed as inhibition of CTP formation in Hepes buffer at pH 8 by continuous spectrophotometric assay in presence of 150 mM NH4Cl
# [2] = Inhibition of Escherichia coli recombinant N-terminal hexahistidine-tagged CTP synthetase expressed in Escherichia coli BL21 (DE3) assessed as inhibition of CTP formation in TAPS buffer at pH 8.5 by continuous spectrophotometric assay in presence of 10 mM L-glutamine and 0.15 mM GTP
# [3] = Inhibition of Escherichia coli recombinant N-terminal hexahistidine-tagged CTP synthetase expressed in Escherichia coli BL21 (DE3) assessed as inhibition of CTP formation in TAPS buffer at pH 8.5 by continuous spectrophotometric assay in presence of 150 mM NH4Cl
# [4] = Inhibition of Escherichia coli recombinant N-terminal hexahistidine-tagged CTP synthetase expressed in Escherichia coli BL21 (DE3) assessed as inhibition of CTP formation in Hepes buffer at pH 8 by continuous spectrophotometric assay in presence of 10 mM L-glutamine and 0.15 mM GTP
# [5] = Inhibition of Escherichia coli recombinant N-terminal hexahistidine-tagged CTP synthetase expressed in Escherichia coli BL21 (DE3) assessed as inhibition of CTP formation by continuous spectrophotometric assay in presence of 150 mM NH4Cl
# [6] = Inhibition of Escherichia coli recombinant N-terminal hexahistidine-tagged CTP synthetase expressed in Escherichia coli BL21 (DE3) assessed as inhibition of CTP formation by continuous spectrophotometric assay in presence of 10 mM L-glutamine and 0.15 mM GTP
# [7] = Multisite inhibition of Escherichia coli recombinant N-terminal hexahistidine-tagged CTP synthetase expressed in Escherichia coli BL21 (DE3) assessed as inhibition of CTP formation in Hepes buffer at pH 8 in presence of 8.16 mM NH4Cl
# Escherichia coli [8] = assay: Inhibition of Escherichia coli recombinant N-terminal hexahistidine-tagged CTP synthetase expressed in Escherichia coli BL21 (DE3) assessed as inhibition of CTP formation at 1 mM in presence of 1mM UTP
# Escherichia coli [9] = assay: Inhibition of Escherichia coli recombinant N-terminal hexahistidine-tagged CTP synthetase expressed in Escherichia coli BL21 (DE3) assessed as inhibition of CTP formation at 1 mM in presence of 1mM ATP
# [10] = Multisite inhibition of Escherichia coli recombinant N-terminal hexahistidine-tagged CTP synthetase expressed in Escherichia coli BL21 (DE3) assessed as inhibition of CTP formation in Hepes buffer at pH 8 in presence of 5.44 mM NH4Cl
# [11] = Multisite inhibition of Escherichia coli recombinant N-terminal hexahistidine-tagged CTP synthetase expressed in Escherichia coli BL21 (DE3) assessed as inhibition of CTP formation in Hepes buffer at pH 8 in presence of 0.54 mM NH4Cl
# [12] = Multisite inhibition of Escherichia coli recombinant N-terminal hexahistidine-tagged CTP synthetase expressed in Escherichia coli BL21 (DE3) assessed as inhibition of CTP formation in Hepes buffer at pH 8 in presence of 2.72 mM NH4Cl
# [13] = Multisite inhibition of Escherichia coli recombinant N-terminal hexahistidine-tagged CTP synthetase expressed in Escherichia coli BL21 (DE3) assessed as inhibition of CTP formation in Hepes buffer at pH 8 in presence of 1.36 mM NH4Cl
Structure (SMILES),IC50 [1],IC50 [2],IC50 [3],IC50 [4],IC50 ([5]; read-out: IC50),IC50 ([6]; read-out: IC50),also measured
O=c1[nH]c(=O)c2nc[nH]c2[nH]1 [XANTHINE],370 µM,160 µM,220 µM,230 µM,,,
O=c1cc[nH]c(=O)[nH]1 [URACIL],,,,,4700 µM,4200 µM,
Cn1c(=O)[nH]c2ncn(C)c2c1=O [PARAXANTHINE],480 µM,200 µM,360 µM,440 µM,,,
Cn1c(=O)c2c(ncn2C)n(C)c1=O [CAFFEINE],,,,,510 µM,390 µM,IC50 [7]: 440 µM; inhibition (Escherichia coli [8]): inactive; inhibition (Escherichia coli [9]): inactive; IC50 [10]: 450 µM; IC50 [11]: 440 µM; IC50 [12]: 420 µM; IC50 [13]: 450 µM
Cn1c(=O)c2[nH]c(=O)[nH]c2n(C)c1=O,72 µM,64 µM,99 µM,88 µM,,,
Nc1ncnc2c1ncn2[C@@H]1O[C@H](CO)[C@@H](O)[C@H]1O [ADENOSINE],,,,,11000 µM,,
O=C(O)Cc1cc(=O)[nH]c(=O)[nH]1,,,,,3170 µM,2600 µM,
Cn1c(=O)c2nc[nH]c2n(C)c1=O [THEOPHYLLINE],550 µM,300 µM,400 µM,430 µM,,,
Cn1c(=O)[nH]c(=O)c2c1[nH]c(=O)n2C,,,,,90 µM,63 µM,inhibition (Escherichia coli [8]): inactive; inhibition (Escherichia coli [9]): inactive
O=c1ccn([C@@H]2O[C@H](CO)[C@@H](O)[C@H]2O)c(=O)[nH]1 [URIDINE],,,,,4600 µM,3100 µM,
Cn1c(=O)[nH]c2[nH]c(=O)[nH]c2c1=O,,,,,96 µM,101 µM,
Cn1c(=O)c2c(n(C)c1=O)n(C)c(=O)n2C,,,,,121 µM,79 µM,
Nc1[nH]cnc2ncnc1-2 [ADENINE],,,,,12900 µM,15800 µM,
NC(=O)NC1NC(=O)NC1=O (stereo unspecified) [ALLANTOIN],,,,,,,IC50 [5]: Not Active; IC50 [6]: Not Active
Cn1cnc2c1c(=O)[nH]c(=O)n2C [THEOBROMINE],,,,,580 µM,420 µM,
Cn1c(=O)[nH]c2[nH]c(=O)n(C)c2c1=O,119 µM,61 µM,109 µM,113 µM,,,
Cn1c(=O)c2c([nH]c(=O)n2C)n(C)c1=O,,,,,70 µM,67 µM,
Oc1nc(O)c2nc(O)[nH]c2n1 [URIC ACID],87 µM,60 µM,113 µM,60 µM,,,
